From ChEMBL document CHEMBL1151471, “Vancomycin-resistant Staphylococcus aureus isolates associated with Inc18-like vanA plasmids in Michigan” (2008)
Values after ≈ are worked out from the molar mass of the structure shown.

Columns and labels:
Assay type in all cases: functional
[1] = system: Staphylococcus aureus; assay: Antibacterial activity against vancomycin-resistant Staphylococcus aureus AIS2006032 isolated from patients foot wound by broth microdilution method
[2] = system: Staphylococcus aureus; assay: Antibacterial activity against vancomycin-resistant Staphylococcus aureus HIP15178 isolated from patients surgical wound by broth microdilution method
[3] = system: Enterococcus faecalis; assay: Antibacterial activity against Enterococcus faecalis HIP15179 coisolated with vancomycin-resistant Staphylococcus aureus by broth microdilution method
[4] = system: Enterococcus avium; assay: Antibacterial activity against Enterococcus avium AIS2007004 isolated from patients rectum by broth microdilution method
[5] = system: Enterococcus faecalis; assay: Antibacterial activity against Enterococcus faecalis AIS2007003 isolated from patients rectum by broth microdilution method
[6] = system: Staphylococcus aureus; assay: Antibacterial activity against vancomycin-resistant Staphylococcus aureus HIP14300 isolated from patients foot wound by broth microdilution method
[7] = system: Staphylococcus aureus; assay: Antibacterial activity against vancomycin-resistant Staphylococcus aureus AIS2006049 isolated from patients arm wound by broth microdilution method
[8] = system: Enterococcus faecalis; assay: Antibacterial activity against Enterococcus faecalis HIP14333 isolated from patients rectum by broth microdilution method

CCCCCCCCCC(=O)N[C@@H](Cc1c[nH]c2ccccc12)C(=O)N[C@H](CC(N)=O)C(=O)N[C@@H](CC(=O)O)C(=O)N[C@@H]1C(=O)NCC(=O)N[C@@H](CCCN)C(=O)N[C@@H](CC(=O)O)C(=O)N[C@H](C)C(=O)N[C@@H](CC(=O)O)C(=O)NCC(=O)N[C@H](CO)C(=O)N[C@@H]([C@H](C)CC(=O)O)C(=O)N[C@@H](CC(=O)c2ccccc2N)C(=O)O[C@@H]1C
MIC [1]: 1 µg/mL (≈ 0.617 µM)
MIC [2]: ≤ 0.5 µg/mL
MIC [3]: 1 µg/mL (≈ 0.617 µM)
MIC [4]: 1 µg/mL (≈ 0.617 µM)
MIC [5]: 2 µg/mL (≈ 1.23 µM)
MIC [6]: ≤ 0.5 µg/mL
MIC [7]: 2 µg/mL (≈ 1.23 µM)

CCC[C@@H]1C[C@@H](C(=O)N[C@@H]([C@H]2O[C@H](SC)[C@H](O)[C@@H](O)[C@H]2O)[C@H](C)Cl)N(C)C1 [CLINDAMYCIN]
MIC [1]: > 16 µg/mL
MIC [2]: > 16 µg/mL
MIC [6]: > 16 µg/mL
MIC [7]: > 16 µg/mL

C[C@H]1c2cccc(O)c2C(=O)C2=C(O)[C@]3(O)C(=O)C(C(N)=O)=C(O)[C@@H](N(C)C)[C@@H]3[C@@H](O)[C@@H]21.O [DOXYCYCLINE]
MIC [1]: 1 µg/mL
MIC [2]: ≤ 0.5 µg/mL
MIC [8]: 8 µg/mL
MIC [3]: ≤ 2 µg/mL
MIC [4]: 8 µg/mL
MIC [5]: 4 µg/mL
MIC [6]: ≤ 0.25 µg/mL
MIC [7]: ≤ 1 µg/mL

CC[C@H]1OC(=O)[C@H](C)[C@@H](O[C@H]2C[C@@](C)(OC)[C@@H](O)[C@H](C)O2)[C@H](C)[C@@H](O[C@@H]2O[C@H](C)C[C@H](N(C)C)[C@H]2O)[C@](C)(O)C[C@@H](C)C(=O)[C@H](C)[C@@H](O)[C@]1(C)O [ERYTHROMYCIN]
MIC [1]: > 8 µg/mL
MIC [2]: > 8 µg/mL
MIC [8]: > 8 µg/mL
MIC [3]: > 8 µg/mL
MIC [4]: > 8 µg/mL
MIC [5]: > 8 µg/mL
MIC [6]: > 8 µg/mL
MIC [7]: > 8 µg/mL

C[C@H]1COc2c(N3CCN(C)CC3)c(F)cc3c(=O)c(C(=O)O)cn1c23.C[C@H]1COc2c(N3CCN(C)CC3)c(F)cc3c(=O)c(C(=O)O)cn1c23.O [LEVOFLOXACIN]
MIC [1]: > 16 µg/mL
MIC [2]: > 16 µg/mL
MIC [8]: > 8 µg/mL
MIC [3]: 8 µg/mL
MIC [4]: 8 µg/mL
MIC [5]: > 8 µg/mL
MIC [6]: > 16 µg/mL
MIC [7]: 8 µg/mL

CC(=O)NC[C@H]1CN(c2ccc(N3CCOCC3)c(F)c2)C(=O)O1 [LINEZOLID]
MIC [4]: 2 µg/mL (≈ 5.93 µM)

Cc1onc(-c2ccccc2)c1C(=O)N[C@@H]1C(=O)N2[C@@H]1SC(C)(C)[C@@H]2C(=O)O [OXACILLIN]
MIC [1]: > 16 µg/mL
MIC [2]: > 16 µg/mL
MIC [6]: > 16 µg/mL
MIC [7]: > 16 µg/mL

CO[C@H]1/C=C/O[C@@]2(C)Oc3c(C)c(O)c4c(O)c(c(/C=N/N5CCN(C)CC5)c(O)c4c3C2=O)NC(=O)/C(C)=C\C=C\[C@H](C)[C@H](O)[C@@H](C)[C@@H](O)[C@@H](C)[C@H](OC(C)=O)[C@@H]1C [RIFAMPIN]
MIC [1]: ≤ 0.5 µg/mL
MIC [2]: ≤ 0.5 µg/mL
MIC [8]: 1 µg/mL (≈ 1.22 µM)
MIC [3]: 2 µg/mL (≈ 2.43 µM)
MIC [4]: 1 µg/mL (≈ 1.22 µM)
MIC [5]: 1 µg/mL (≈ 1.22 µM)
MIC [6]: ≤ 0.5 µg/mL
MIC [7]: ≤ 0.5 µg/mL

CN[C@@H]1[C@H](O[C@H]2[C@H](O[C@H]3[C@H](O)[C@@H](O)[C@H](N=C(N)N)[C@@H](O)[C@@H]3N=C(N)N)O[C@@H](C)[C@]2(O)C=O)O[C@@H](CO)[C@H](O)[C@H]1O [STREPTOMYCIN]
MIC [8]: ≤ 1000 µg/mL
MIC [3]: > 1000 µg/mL
MIC [4]: ≤ 1000 µg/mL
MIC [5]: > 1000 µg/mL

CN[C@H](CC(C)C)C(=O)N[C@H]1C(=O)N[C@@H](CC(N)=O)C(=O)N[C@H]2C(=O)N[C@H]3C(=O)N[C@H](C(=O)N[C@H](C(=O)O)c4cc(O)cc(O)c4-c4cc3ccc4O)[C@H](O)c3ccc(c(Cl)c3)Oc3cc2cc(c3O[C@@H]2O[C@H](CO)[C@@H](O)[C@H](O)[C@H]2O[C@H]2C[C@](C)(N)[C@H](O)[C@H](C)O2)Oc2ccc(cc2Cl)[C@H]1O [VANCOMYCIN]
MIC [1]: 1020 µg/mL (≈ 707 µM)
MIC [2]: 512 µg/mL (≈ 353 µM)
MIC [8]: 1020 µg/mL (≈ 707 µM)
MIC [3]: 512 µg/mL (≈ 353 µM)
MIC [4]: 256 µg/mL (≈ 177 µM)
MIC [5]: > 512 µg/mL
MIC [6]: 256 µg/mL (≈ 177 µM)
MIC [7]: 512 µg/mL (≈ 353 µM)

GENTAMICIN
MIC [1]: < 2 µg/mL
MIC [2]: < 2 µg/mL
MIC [8]: > 500 µg/mL
MIC [3]: > 500 µg/mL
MIC [4]: > 500 µg/mL
MIC [5]: > 500 µg/mL
MIC [6]: < 2 µg/mL
MIC [7]: < 2 µg/mL
